According to patent US20260070887A1 (Shenzhen Zhongge Biological Technology Co., Ltd., priority 2022, published 2026):

Columns and labels:
PK study in ICR mice = format: in vivo, mouse; settings: both sexes, mouse, plasma, route and dose not given
Description: 6 ICR mice (male/female) were divided into two groups, administered orally and intravenously, respectively, with 3 mice/group. The mice were fasted for 10-14 hours prior to dosing with free access to water.
The test compound was weighed according to the administration dose, and prepared into a dose formulation at appropriate concentrations (for rats and mice, intravenous and oral administration at a volume of 5 mL/kg and 10 mL/kg, respectively), wherein the intravenous injection was a clear solution, and the oral preparation was a clear solution or a homogeneous suspension.
Animals were dosed by intravenous injection and oral gavage, and blood samples were collected at 0.033, 0.083, 0.25, 0.5, 1, 2, 4, 8, and 24 h after intravenous administration and 0.083, 0.25, 0.5, 1, 2, 4, 6, 8, and 24 h after oral administration. Whole blood was centrifuged at 6800 g for 6 min at 4° C. and the top plasma was stored in a −80° C. freezer for later analysis.
The DMSO stock solution of the test compound was diluted into a series of working solutions with a methanol or an acetonitrile solution, and added to a blank plasma matrix, and standard curves were generated and quality control samples were prepared. An appropriate volume of the plasma sample was taken and a suitable multiple of methanol or acetonitrile containing an internal standard was added for protein precipitation based on the response. After centrifugation of all samples at 18000 g for 10 min at 4° C., an appropriate amount of supernatant was taken for LC-MS/MS injection analysis.
Drug concentration-time curves in plasma were plotted according to test concentrations, and pharmacokinetic parameters were calculated using noncompartmental analysis by WinNonlin software, including: half-life (T½), area under the concentration-time curve from time zero to time t (AUCO-t), clearance (CL), volume of distribution at steady state (Vss) and bioavailability (F), with some of the test results shown in Table 4.

hERG channel = hERG channel (Homo sapiens (Human), UniProt Q12809); experiment: hERG manual patch clamp test; format: cell-based
Description: The cells used in this test were the HEK293 cell line transfected with hERG cDNA and stably expressing the hERG channel (#60187, supplied by BPS, passages P3-P23 for experimental studies). The cells were cultured in a medium containing the following components: MEM medium containing 10% (v/v) inactivated fetal calf serum, 1 mM sodium pyruvate, 500 μg/ml geneticin, 0.1 mM non-essential amino acids, and 100 U/m1 penicillin/streptomycin. HEK293 hERG cells were grown in a culture dish containing the above-mentioned medium, cultured in a 37° C., 5% CO2 incubator, and passaged approximately three times per week, with the cell fusion rate between 40% and 80%. 24 to 48 hours prior to electrophysiological experiments, HEK293 hERG cells were transferred to 0.05 mg/ml PDL-pretreated slides, seeded at a density of 1×10^4 cells per well in a 48-well plate, and grown in the same medium and under the same culture conditions. The density of HEK293 hERG cells on each circular slide needs to reach the requirement that most cells are independent and individual. The extracellular fluid components used in the hERG assay were as follows (mM): 145 NaCl, 4 KCl, 2 CaCl2, 1 MgCl2, 10 glucose, and 10 HEPES (pH adjusted to 7.40 with NaOH). The intracellular fluid components were as follows (mM): 130 KCl, 2 MgCl2, 5 EGTA, 10 HEPES and 5 Na2ATP (pH adjusted to 7.25 with KOH). […] Prior to the experiment, the compound was first serially diluted with DMSO to prepare stock solutions at 10, 3, 1, 0.3, and 0.1 mM, which were then further diluted with extracellular fluid to achieve the final test concentrations (in μM). The final concentration of DMSO in compound solutions at various concentrations was between 0.1% and 0.3%. All compound solutions are routinely sonicated for 5 to 10 min and shaken sufficiently to ensure complete dissolution of the compound, and all test solutions are mixed well by rotation for at least 10 min.
Electrophysiological tests were performed using a manual patch clamp system (HEKA EPC-10 signal amplifier and digital conversion system, HEKA Electronics, Germany) for the recording of whole cell currents. The specific test method was described as follows: Circular slides with […] hERG cells growing on the surface were placed in an electrophysiological recording chamber under an inverted microscope. The recording chamber was continuously perfused with extracellular fluid (at approximately 1 mL/min). The conventional whole-cell patch-clamp technique was employed for current recordings throughout the experiment. If not specified, the experiments were carried out at normal room temperature (about 25° C.). The cells were clamped at −80 mV. The cell clamp voltage was depolarized to +30 mV to activate the hERG potassium channel, and then clamped to −50 mV after 5 seconds to eliminate inactivation and produce a tail current. The peak tail current value was used as a value for the magnitude of the hERG current. The potassium current of hERG recorded in the above steps was stabilized by continuous extracellular fluid perfusion in the recording chamber, and the drug to be tested was continuously perfused until the inhibitory effect of the drug on hERG currents had stabilized. The coincidence of the most recent three consecutive current recording traces was typically taken as the criteria for determining whether steady-state conditions were achieved.
Dose-response curves of the test compounds were plotted with % hERG inhibition rate as the y-axis and test compound concentration as the x-axis, to calculate the IC50 values.

OVCAR-3 cells = experiment: OVCAR-3 cell proliferation (Cell Titer-Glo, 10 days); format: cell-based, human; settings: Homo sapiens, OVCAR-3, 240 h
Procedure, shortened: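 IC50 was fitted by nonlinear regression of percent inhibition versus the 0.1% DMSO control. Luminescence was read with Cell Titer-Glo after 10 days of co-culture of logarithmic-phase cells (400/well) with compound at 0.12 nM–10 μM final, in medium with 20% fetal bovine serum and 0.01 mg/mL insulin.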

hERG channel, sequence (Q12809 whole entry, the tested form may be a part): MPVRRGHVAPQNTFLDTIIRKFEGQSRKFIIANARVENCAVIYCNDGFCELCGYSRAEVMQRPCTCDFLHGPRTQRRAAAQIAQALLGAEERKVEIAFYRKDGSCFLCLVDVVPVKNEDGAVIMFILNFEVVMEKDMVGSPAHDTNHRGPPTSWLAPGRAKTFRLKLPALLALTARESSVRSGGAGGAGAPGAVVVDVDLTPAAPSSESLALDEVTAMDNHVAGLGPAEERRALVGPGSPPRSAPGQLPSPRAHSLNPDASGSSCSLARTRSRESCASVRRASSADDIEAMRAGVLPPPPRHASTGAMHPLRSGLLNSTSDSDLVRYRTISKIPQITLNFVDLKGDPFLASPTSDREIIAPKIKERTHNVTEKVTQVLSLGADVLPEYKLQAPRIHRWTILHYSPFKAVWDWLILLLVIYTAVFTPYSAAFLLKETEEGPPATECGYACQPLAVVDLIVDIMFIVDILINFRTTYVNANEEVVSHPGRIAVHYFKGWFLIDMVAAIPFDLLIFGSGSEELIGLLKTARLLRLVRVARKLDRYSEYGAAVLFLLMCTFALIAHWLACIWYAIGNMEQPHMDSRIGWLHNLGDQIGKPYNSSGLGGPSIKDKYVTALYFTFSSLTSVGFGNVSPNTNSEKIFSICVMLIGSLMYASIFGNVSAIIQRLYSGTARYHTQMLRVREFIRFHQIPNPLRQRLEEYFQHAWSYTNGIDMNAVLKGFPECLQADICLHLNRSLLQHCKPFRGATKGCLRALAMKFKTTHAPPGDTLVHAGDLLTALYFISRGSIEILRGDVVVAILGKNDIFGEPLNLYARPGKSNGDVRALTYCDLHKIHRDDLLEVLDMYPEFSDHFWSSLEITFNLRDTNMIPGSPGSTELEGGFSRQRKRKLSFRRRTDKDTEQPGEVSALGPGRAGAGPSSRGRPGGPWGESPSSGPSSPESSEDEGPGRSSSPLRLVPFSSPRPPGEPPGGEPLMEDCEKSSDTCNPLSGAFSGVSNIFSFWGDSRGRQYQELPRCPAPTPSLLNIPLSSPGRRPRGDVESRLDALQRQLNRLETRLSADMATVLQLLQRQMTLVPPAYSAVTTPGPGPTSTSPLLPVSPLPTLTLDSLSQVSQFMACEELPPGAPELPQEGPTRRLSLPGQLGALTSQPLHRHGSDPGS

Compound `COc1ccc(NC(=O)c2ccc(NS(=O)(=O)CCO)cc2N2CCC3(CC2)CC3)c2cc3n(c12)CCC(F)(F)C3` [Example 478, N-(8,8-difluoro-4-methoxy-6,7,8,9-tetrahydropyridino[1,2-a]indol-1-yl)-4-(2-hydroxyethylsulfonamido)-2-(6-azaspiro[2.5]octan-6-yl)benzamide] has an AUC (PK study in ICR mice; read-out: AUC) of 48500 ng·h/mL, a Cmax (PK study in ICR mice; read-out: Cmax) of 6020 ng/mL and an IC50 (hERG channel) of 8 µM. The IC50 (OVCAR-3 cells) was no more than 0.05 µM.
